{"source": "patent US20260256742A1", "about": "“ANDROGEN RECEPTOR ANTAGONISTS FOR THE TREATMENT OF PATIENTS WITH BIOCHEMICAL RECURRENCE OF HORMONE SENSITIVE PROSTATE CANCER” (BAYER CONSUMER CARE AG, priority 2023, published 2026)", "key": {"[1]": {"biological_target": "T1, organic anion transporter (OAT)3 (Homo sapiens, UniProt Q8TCC7)", "T1 sequence (Q8TCC7 1-542)": "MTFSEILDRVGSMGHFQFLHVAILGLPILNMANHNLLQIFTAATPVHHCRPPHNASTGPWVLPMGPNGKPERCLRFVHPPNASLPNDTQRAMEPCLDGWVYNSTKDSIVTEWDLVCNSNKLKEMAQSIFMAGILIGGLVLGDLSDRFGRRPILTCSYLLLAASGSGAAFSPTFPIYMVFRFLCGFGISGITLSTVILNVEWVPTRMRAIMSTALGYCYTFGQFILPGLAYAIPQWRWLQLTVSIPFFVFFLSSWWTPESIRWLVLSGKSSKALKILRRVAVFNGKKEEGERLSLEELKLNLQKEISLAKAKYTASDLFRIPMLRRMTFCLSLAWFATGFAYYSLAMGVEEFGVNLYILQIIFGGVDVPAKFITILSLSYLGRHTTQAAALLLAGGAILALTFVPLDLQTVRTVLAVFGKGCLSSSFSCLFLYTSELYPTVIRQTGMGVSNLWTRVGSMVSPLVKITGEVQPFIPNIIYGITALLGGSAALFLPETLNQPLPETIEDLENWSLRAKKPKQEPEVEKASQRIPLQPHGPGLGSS", "details": "in vitro; cited from earlier work"}, "[2]": {"biological_target": "T2, breast cancer resistance protein (BCRP) (Homo sapiens, UniProt Q9UNQ0)", "T2 sequence (Q9UNQ0 1-655)": "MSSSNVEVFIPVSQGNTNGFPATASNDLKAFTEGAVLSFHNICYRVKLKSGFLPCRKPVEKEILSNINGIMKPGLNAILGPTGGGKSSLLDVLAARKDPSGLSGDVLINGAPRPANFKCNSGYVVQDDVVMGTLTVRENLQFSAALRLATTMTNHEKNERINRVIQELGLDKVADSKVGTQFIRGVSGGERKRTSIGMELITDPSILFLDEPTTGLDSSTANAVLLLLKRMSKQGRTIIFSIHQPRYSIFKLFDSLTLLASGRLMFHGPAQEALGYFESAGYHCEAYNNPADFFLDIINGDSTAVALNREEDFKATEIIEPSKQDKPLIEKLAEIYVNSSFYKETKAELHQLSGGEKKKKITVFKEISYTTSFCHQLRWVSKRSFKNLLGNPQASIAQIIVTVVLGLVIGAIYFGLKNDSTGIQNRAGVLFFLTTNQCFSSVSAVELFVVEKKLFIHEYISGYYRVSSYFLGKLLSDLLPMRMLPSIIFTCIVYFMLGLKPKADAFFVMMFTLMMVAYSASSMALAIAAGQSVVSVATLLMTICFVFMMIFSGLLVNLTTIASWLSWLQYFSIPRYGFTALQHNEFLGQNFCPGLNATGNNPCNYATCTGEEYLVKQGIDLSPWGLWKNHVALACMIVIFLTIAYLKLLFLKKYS", "details": "cited from earlier work"}, "MATE2-K": {"biological_target": "MATE2-K (Homo sapiens, UniProt Q86VL8)", "sequence (Q86VL8 1-566 isoform Q86VL8-3)": "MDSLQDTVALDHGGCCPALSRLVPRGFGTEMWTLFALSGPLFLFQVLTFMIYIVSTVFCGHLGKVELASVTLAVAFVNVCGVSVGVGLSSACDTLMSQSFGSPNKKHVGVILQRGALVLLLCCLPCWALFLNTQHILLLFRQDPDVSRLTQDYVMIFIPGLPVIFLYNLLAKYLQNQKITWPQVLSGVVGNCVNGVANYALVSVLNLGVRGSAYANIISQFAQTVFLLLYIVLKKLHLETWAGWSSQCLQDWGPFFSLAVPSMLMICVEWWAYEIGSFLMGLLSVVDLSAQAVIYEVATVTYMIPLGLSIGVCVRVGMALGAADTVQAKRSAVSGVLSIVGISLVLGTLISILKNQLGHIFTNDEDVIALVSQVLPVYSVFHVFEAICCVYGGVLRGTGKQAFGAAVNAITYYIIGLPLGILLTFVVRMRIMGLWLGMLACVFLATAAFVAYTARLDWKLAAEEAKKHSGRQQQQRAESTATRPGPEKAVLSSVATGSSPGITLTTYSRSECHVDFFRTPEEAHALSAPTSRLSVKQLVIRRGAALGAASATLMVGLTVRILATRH", "details": "in vitro; cited from earlier work"}, "Cytochrome P450 (CYP)3A4": {"biological_target": "Cytochrome P450 (CYP)3A4 (Homo sapiens, UniProt P08684)", "sequence (P08684 whole entry)": "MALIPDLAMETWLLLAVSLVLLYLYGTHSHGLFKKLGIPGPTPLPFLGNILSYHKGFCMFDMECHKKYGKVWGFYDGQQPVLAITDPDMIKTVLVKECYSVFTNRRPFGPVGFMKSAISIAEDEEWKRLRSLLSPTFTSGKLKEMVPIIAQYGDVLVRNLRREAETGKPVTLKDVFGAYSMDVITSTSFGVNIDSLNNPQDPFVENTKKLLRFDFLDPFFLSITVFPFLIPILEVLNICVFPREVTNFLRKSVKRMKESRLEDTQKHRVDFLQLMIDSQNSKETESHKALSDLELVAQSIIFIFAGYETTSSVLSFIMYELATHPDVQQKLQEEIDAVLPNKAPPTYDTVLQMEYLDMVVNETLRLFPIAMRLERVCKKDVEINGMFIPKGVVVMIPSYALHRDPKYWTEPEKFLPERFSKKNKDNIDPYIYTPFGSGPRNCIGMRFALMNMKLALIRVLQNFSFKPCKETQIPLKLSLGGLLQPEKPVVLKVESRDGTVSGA", "details": "in vitro; cited from earlier work"}, "BCRP": {"biological_target": "T3, BCRP (Homo sapiens, UniProt Q9UNQ0)", "T3 sequence (Q9UNQ0 1-655)": "T2 sequence (Q9UNQ0 1-655)", "details": "in vitro; cited from earlier work"}, "nine CYP isoforms": {"system": "nine CYP isoforms", "details": "in vitro; cited from earlier work"}, "[3]": {"biological_target": "T4, multidrug and toxin extrusion (MATE)1 (Homo sapiens, UniProt Q96FL8)", "T4 sequence (Q96FL8 1-570)": "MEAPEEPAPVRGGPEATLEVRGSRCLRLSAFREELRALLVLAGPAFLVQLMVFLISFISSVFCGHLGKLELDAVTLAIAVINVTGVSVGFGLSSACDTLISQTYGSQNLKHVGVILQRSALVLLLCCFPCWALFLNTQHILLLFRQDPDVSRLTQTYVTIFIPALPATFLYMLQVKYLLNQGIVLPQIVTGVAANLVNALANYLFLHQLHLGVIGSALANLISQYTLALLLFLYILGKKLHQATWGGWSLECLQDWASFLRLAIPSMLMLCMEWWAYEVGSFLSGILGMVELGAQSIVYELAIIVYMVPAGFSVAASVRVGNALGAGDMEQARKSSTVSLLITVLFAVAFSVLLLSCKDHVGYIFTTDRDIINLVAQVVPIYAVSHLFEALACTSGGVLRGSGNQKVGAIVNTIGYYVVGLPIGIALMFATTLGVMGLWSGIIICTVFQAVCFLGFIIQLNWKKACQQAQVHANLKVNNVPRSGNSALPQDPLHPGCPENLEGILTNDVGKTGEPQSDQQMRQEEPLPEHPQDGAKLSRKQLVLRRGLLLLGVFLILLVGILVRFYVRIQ", "details": "in vitro; cited from earlier work"}, "[4]": {"details": "dog, in vivo"}, "nmCRPC": {"system": "nmCRPC", "details": "in combination with ADT, patients with nmCRPC; cited from earlier work"}, "[5]": {"details": "cited from earlier work"}}}
{"smiles": "CC(O)c1cc(C(=O)N[C@@H](C)Cn2ccc(-c3ccc(C#N)c(Cl)c3)n2)[nH]n1", "note": "(some centres unmarked) [Darolutamide]", "values": [{"measurement": "inhibition of OAT3-mediated transport", "setting": "[1]", "result": "observed"}, {"measurement": "substrate for BCRP", "setting": "[2]", "result": "substrate"}, {"measurement": "inhibition of MATE2-K-mediated transport", "setting": "MATE2-K", "result": "observed"}, {"measurement": "main metabolic pathway", "setting": "Cytochrome P450 (CYP)3A4", "result": "mainly metabolized via oxidative biotransformation catalyzed by Cytochrome P450 (CYP)3A4"}, {"measurement": "inhibition of BCRP-mediated transport", "setting": "BCRP", "result": "observed"}, {"measurement": "inhibition of enzymatic activity of nine CYP isoforms", "setting": "nine CYP isoforms", "result": "not inhibited or slightly inhibited"}, {"measurement": "inhibition of MATE1-mediated transport", "setting": "[3]", "result": "observed"}, {"measurement": "additional changes to reproductive tissues", "setting": "[4]", "result": "testicular hypospermia, seminiferous tubule dilatation and degeneration"}, {"measurement": "deaths during the treatment period", "setting": "[4]", "result": "No deaths occurred"}, {"measurement": "other adverse effects", "setting": "[4]", "result": "No other adverse effects were observed"}, {"measurement": "reversibility of changes in the male reproductive organs", "setting": "[4]", "result": "reversed or partially resolved"}, {"measurement": "metastatic free survival (MFS)", "setting": "nmCRPC", "result": "significantly increased"}, {"measurement": "overall survival (OS)", "setting": "nmCRPC", "result": "significantly increased"}, {"measurement": "effect of co-administration on CYP3A4/P-gp substrates", "setting": "[5]; Phase I", "result": "no effect or only minor effects"}, {"measurement": "increase of rosuvastatin exposure with darolutamide", "setting": "[5]; because of BCRP and probably also OATPB1/OATPB3 inhibition", "result": 5.2, "unit": "fold"}, {"measurement": "increase of darolutamide exposure", "setting": "[5]; co-administered itraconazole, Phase I", "result": 1.75, "unit": "fold"}, {"measurement": "decrease of darolutamide exposure", "setting": "[5]; with rifampicin, Phase I", "result": 72, "unit": "%"}]}
